Test results: patent US10335411B2, “Administration of ubiquitin-activating enzyme inhibitor and radiation” (Millennium Pharmaceuticals, Inc., priority 2014, dated 2019)

Experiments:
LU-01-0266 xenograft = LU-01-0266 xenograft model, Compound 1 and radiation; format: in vivo, mice; conditions: for Classification / Synergy score: through Day 20
Text: (§1) The LU-01-0266 xenograft model is a human primary non-small cell lung tumor model. Approximately nine week old female BALB/c nude (Shanghai Sino-British SIPPR/BK Laboratory Animal Co., LTD.) mice were implanted subcutaneously with approximate 30 mm^3 LU-01-0266 tumor slices in the right flank. When the mean tumor volume reached approximately 173 mm^3, the animals were randomized into 10 treatment groups (n=8/group).
Compound 1 [((1R,2R,3S,4R)-2,3-dihydroxy-4-(2-(3-(trifluoromethylthio) ? phenyl)pyrazolo[1,5-a]pyrimidin-7-ylamino)cyclopentyl)methyl sulfamate] is formulated in 10% HPbCD in sterile water and administered intravenously on days 0, 3, 7, 10, 14, 17 in the LU-01-0266 and HN-13-0007 models and on days 0, 3, 8, 11, 15, 18 in the ST-02-0004 model and in the second study with the LU-01-0030 model. Compound 1 formulation was prepared weekly and stored at room temperature in the dark.
Beam-focused radiation was delivered using 2 Gray dosed on days 0, 1, 7, and 8 or on days 0, 3, 7, and 10 in the LU-01-0266 and HN-13-0007 models. In the ST-02-0004 model 2 Gray of radiation was delivered on days 0, 1, 3, and 8. A Rad Source RS-2000 X-ray irradiator was used for therapy (Rad Source). Before radiation, animals were anesthetized by i.p. injection using 1.0% sodium pentobarbital at 80 mg/kg (Vendor: Sigma). Focused radiation was applied to each mouse at 1 Gy/min.
(§2) Tumors were measured twice weekly using vernier calipers. Tumor volumes were calculated using the following formula: (0.5×[length×width^2]). Treatment groups and dosing/treatment schedules are indicated in Tables 1a, 2a, 3a, 4a, and 5a below. Tumor size and body weight are measured approximately twice a week for the duration of the study. Mice are euthanized when their tumor volume reached approximately 1000 mm^3. Tumor growth continued to be monitored after the dosing period in some studies. In Tables 1a, 2a, 3a, 4a, and 5a tumor volumes are shown for HN-13-0014 (day 21), LU-01-0030 (day 21), the second LU-01-0030 study (day 20), LU-01-0266 (day 20), ST-02-0004 (day 21) and FIN-13-0007 (day 24), respectively. Average tumor volume is reported as a function of time for selected groups of selected studies.
(§3) Measurements from day 0 to day 20, day 21 or day 24 are analyzed as specified in Tables below. All tumor volumes have a value of 1 added to them before log10 transformation. For each animal, the log tumor volume at day 0 is subtracted from the log tumor volume on the subsequent days. This difference vs. time is used to calculate an area under the curve (AUC) for each animal using the trapezoid rule. In instances when an animal in a treatment group is removed early from the study, the last observed tumor value is carried forward through all subsequent time points. The synergy score for the combination of agents A and B is defined as 100*(mean(AUCAB)−mean(AUCA)−mean(AUCB)+mean(AUCctl))/mean(AUCctl): where AUCAB, AUCA, AUCB, and AUCctl are the AUC values for animals in the combination group, the A group, the B group, and the control group, respectively. The standard error of the synergy score is computed based on the variation in the AUC values among the animals. […] If the P-value is above 0.05, then the combination is considered to be additive. If the P-value is below 0.05, and the synergy score is less than zero, then the combination is considered to be synergistic. If the P-value is below 0.05 and the synergy score was greater than zero, but the mean AUC for the combination was lower than the lowest mean AUC among the two single agent treatments, then the combination was sub-additive. If the P-value is below 0.05 and if the synergy score was greater than zero, and the mean AUC for the combination was greater than the mean AUC for at least one of the single agent treatments, then the combination was antagonistic.

LU-01-0030 xenograft = LU-01-0030 xenograft model, first study, Compound 1 and radiation; format: in vivo, mice
Text: as §1, with “The LU-01-0030” for “The LU-01-0266”, “lung cancer” for “lung tumor”, “model. In the first study with the LU-01-0030 model, approximately” for “model. Approximately”, “mm^3 LU-01-0030” for “mm^3 LU-01-0266”, “approximately 159” for “approximately 173”
Compound 1 [((1R,2R,3S,4R)-2,3-dihydroxy-4-(2-(3-(trifluoromethylthio) ? phenyl)pyrazolo[1,5-a]pyrimidin-7-ylamino)cyclopentyl)methyl sulfamate] is formulated in 10% HPbCD in sterile water and administered intravenously on a BIW (twice/week schedule; Monday and Thursday, i.e. days 0, 3, 7, 10, 14, 17) for 3 weeks in the HN-13-0014 and LU-01-0030 (first study) models. Compound 1 formulation was prepared weekly and stored at room temperature in the dark.
Beam-focused radiation was delivered using a either 1 or 2 Gray dosed on days 0, 1, 7, and 8 or on days 0, 3, 7, and 10 in the HN-13-0014 and LU-01-0030 (first study) models. A Rad Source RS-2000 X-ray irradiator was used for therapy (Rad Source). Before radiation, animals were anesthetized by i.p. injection using 1.0% sodium pentobarbital at 80 mg/kg (Vendor: Sigma). Focused radiation was applied to each mouse at 1 Gy/min.
as §2, §3

[1] = 6.25 mg/kg Compound 1 IV BIWx3 + 2 Gy Radiation Beam D 0, 1, 7, 8
[2] = 6.25 mg/kg Compound 1 IV BIWx3 + 2 Gy Radiation Beam D 0, 3, 7, 10
[3] = 15 mg/kg Compound 1 IV BIWx3 + 2 Gy Radiation Beam D 0, 1, 7, 8
[4] = 15 mg/kg Compound 1 IV BIWx3 + 2 Gy Radiation Beam D 0, 3, 7, 10
[5] = 6.25 mg/kg Compound 1 + 2 Gy Radiation D0, 1, 7, 8
[6] = 6.25 mg/kg Compound 1 + 2 Gy Radiation D0, 3, 7, 10
[7] = 15 mg/kg Compound 1 + 2 Gy Radiation D0, 1, 7, 8
[8] = 15 mg/kg Compound 1 + 2 Gy Radiation D0, 3, 7, 10

In the case of NS(=O)(=O)OC[C@H]1C[C@@H](Nc2ccnc3cc(-c4cccc(SC(F)(F)F)c4)nn23)[C@H](O)[C@@H]1O [Compound 1, ((1R,2R,3S,4R)-2,3-dihydroxy-4-(2-(3-(trifluoromethylthio)phenyl)pyrazolo[1,5-a]pyrimidin-7-ylamino)cyclopentyl)methyl sulfamate], the “Tumor Volume Day 20” value (LU-01-0266 xenograft; [1]) is reported as 181.6 mm^3, the “Tumor Volume Day 20” value (LU-01-0266 xenograft; [2]) is reported as 213.4 mm^3 and the “Tumor Volume Day 20” value (LU-01-0266 xenograft; 6.25 mg/kg Compound 1 IV BIWx3 = D 0, 3, 7, 10, 14, 17, single agent) is reported as 1004.5 mm^3. For the same compound, the “Tumor Volume Day 20” value (LU-01-0266 xenograft; [3]) was 77.4 mm^3, the “Tumor Volume Day 20” value (LU-01-0266 xenograft; [4]) was 174.9 mm^3 and the “Tumor Volume Day 20” value (LU-01-0266 xenograft; 15 mg/kg Compound 1 IV BIWx3 = D 0, 3, 7, 10, 14, 17, single agent) was 779 mm^3. The combination effect (LU-01-0266 xenograft; Compound 1 with 2 Gy radiation) was “additive combination effect”, the “anti-tumor activity compared to the vehicle control” value (LU-01-0266 xenograft; single agent, IV at 6.25 and 15 mg/kg BIW for 3 weeks on Days 0, 3, 7, 10, 14, 17) was “weak anti-tumor activity” and the Classification (LU-01-0266 xenograft; [5]) was “Additive (If the P-value is above 0.05, then the combination is considered to be additive)”. The Synergy score (LU-01-0266 xenograft; [5]) was 14, the Classification (LU-01-0266 xenograft; [6]) was “Additive (If the P-value is above 0.05, then the combination is considered to be additive)” and the Synergy score (LU-01-0266 xenograft; [6]) was 15. For the same compound, the Classification (LU-01-0266 xenograft; [7]) was “Additive (If the P-value is above 0.05, then the combination is considered to be additive)”, the Synergy score (LU-01-0266 xenograft; [7]) was −25 and the Classification (LU-01-0266 xenograft; [8]) was “Additive (If the P-value is above 0.05, then the combination is considered to be additive)”. The Synergy score (LU-01-0266 xenograft; [8]) was 12, the Classification (LU-01-0030 xenograft; [5]) was “Additive (If the P-value is above 0.05, then the combination is considered to be additive)” and the Synergy score (LU-01-0030 xenograft; [5]) was 5.4. The Classification (LU-01-0030 xenograft; [6]) was “Additive (If the P-value is above 0.05, then the combination is considered to be additive)”, the Synergy score (LU-01-0030 xenograft; [6]) was −22.2 and the “Tumor Volume Day 21” value (LU-01-0030 xenograft; [1]) was 101.9 mm^3. For the same compound, the “Tumor Volume Day 21” value (LU-01-0030 xenograft; [2]) was 106.3 mm^3, the “Tumor Volume Day 21” value (LU-01-0030 xenograft; 6.25 mg/kg Compound 1 IV BIWx3, single agent) was 555.7 mm^3 and the “anti-tumor activity compared to the vehicle control” value (LU-01-0030 xenograft; 6.25 mg/kg Compound 1 as a single agent) was “no anti-tumor activity”. For the same compound, the Classification (LU-01-0030 xenograft; [7]) was “Synergy (If the P-value is below 0.05, and the synergy score is less than zero, then the combination is considered to be synergistic)”, the Synergy score (LU-01-0030 xenograft; [7]) was −139.6 and the Classification (LU-01-0030 xenograft; [8]) was “Synergy (If the P-value is below 0.05, and the synergy score is less than zero, then the combination is considered to be synergistic)”. The Synergy score (LU-01-0030 xenograft; [8]) was −165.9, the “Tumor Volume Day 21” value (LU-01-0030 xenograft; [3]) was 2.3 mm^3 and the “Tumor Volume Day 21” value (LU-01-0030 xenograft; [4]) was 2.8 mm^3. For the same compound, the “Tumor Volume Day 21” value (LU-01-0030 xenograft; 15 mg/kg Compound 1 IV BIWx3, single agent) was 151.3 mm^3, the “anti-tumor activity, single agent” value (LU-01-0030 xenograft; Compound 1 at 15 mg/kg as single agent) was “tumor stasis” and the combination effect (LU-01-0030 xenograft; Compound 1 with 2 Gy radiation) was “additive-to-synergistic combination effect”.
